Results on one compound are retold here after US5607969A, “L-DOPA ethyl ester to treat Parkinson's disease” (priority 1995, dated 1997).

Data set [1] relates to Parkinson's Disease patients having response fluctuations. As to the kind of experiment: Clinical trial: administration of L-DOPA ethyl ester by injection (UPDRS on/off phases). In kind it is in vivo, human. To be noted: prior to administration of LDEE. As for the experimental part: A clinical trial was undertaken to assess the clinical efficacy of L-DOPA ethyl ester administered by sub-cutaneous injection.
The solution for injection L-DOPA ethyl ester 100mg, HCl to pH 4.0 and purified water as the vehicle.
Ten Parkinson's Disease patients having response fluctuations were hospitalized. These patients are typified in have "on" phases fluctuating with incapacitating "off" phases. Patients were administered s.c. or i.m. L-DOPA ethyl ester at escalating doses of 150-300mg in 2ml vehicle, twice daily, one hour after an oral capsule containing 25mg of carbidopa. "Off" and "on" UPDRS (Unified Parkinson's Disease Rating Scale) profiles, time to "on" phase and duration of "on" phase were measured. Blood samples were taken every 10 minutes post-L-DOPA ethyl ester administration for measurement of levodopa levels.

For data set [2] the following is noted: cited from earlier work.
The subject of data set [3] is Parkinsonian patients. To be noted: cited from earlier work.

`N[C@@H](Cc1ccc(O)c(O)c1)C(=O)O` [L-DOPA]: the “mean duration of "on" phase” value in data set [1] (levodopa) was “approximately 90 minutes”. The “mean latency to an "on" phase” value in data set [1] (post-administration of levodopa) was in the range of 45 to 75 min. In addition, the solubility result in data set [2] is given as “very poor solubility”. Moreover, the “initial period of satisfactory, smooth and stable clinical benefit” value in data set [3] (L-DOPA therapy, on the average) was 2-5 years. Further, in data set [3] (in vivo), the bioavailability result was “poor bioavailability” and the half-life in vivo entry is “short half-life in vivo”.
